From patent publication US6458811B1, “Benzothiophenes formulations containing same and methods” (Eli Lilly and Company, priority 1996, dated 2002)
Structures can show the parent of a compound that is named as a salt.

Legend:
[1] = Dissolution of bulk lots handfilled into capsules, 0.1% aqueous polysorbate 80, USP Apparatus II; format: physicochemical; conditions: hydrochloride; for % Dissolved: 60.0 mg in capsule; for % Dissolved at 10 Minutes: Table 8, 10 minutes; for % Dissolved at 30 Minutes: Table 8, 30 minutes
Description: Data was collected at 10, 20, 30 and 45 minutes to produce a dissolution profile.

[2] = Particle size distribution by laser light diffraction (Horiba LA900); format: physicochemical; conditions: hydrochloride
Description: In preparing the particulate compound of the invention a compound of formula I, in its raw state, is first characterized for size using an instrument adapted to measure equivalent spherical volume diameter, that is to say a Horiba LA900 Laser Scattering Particle Size Distribution Analyzer or equivalent instrument.
Sample is added to the dispersant until an acceptable level of laser light obscuration achieved at which point the particle size distribution is measured. […] The dispersant solution was filtered through a 0.2 micron microporous membrane filter to provide the necessary particle-free suspending dispersant.
Within five minutes of the preparation of the dispersion, triplicate particle size measurements were performed. Triplicate measurements are effected as a minimum check a) to produce more reliable measurements and b) to check the equivalent sampling of the suspended material has been reproducible i.e., the suspension has not settled.
From this, the mean equivalent spherical volume diameter value was derived (50% undersize value) together with the standard deviation of the distribution calculated as above.

[3] = Plasma AUC of unconjugated raloxifene in rats dosed in diet; format: in vivo, Fischer 344 rats; conditions: 0.4% w/w in diet for seven days, hydrochloride
Description: In an attempt to evaluate these differences upon in vivo absorption, a study was conducted in Fischer 344 rats.

[4] = Surface area by nitrogen adsorption (BET); format: physicochemical; conditions: bulk lot
[5] = system: MCF-7 cells; conditions: MCF-7 cells in cell culture; cited from earlier work
[6] = system: uterotrophic response; conditions: OVX rats; cited from earlier work
[7] = system: uterotrophic response to estrogen; conditions: immature rats, versus tamoxifen; cited from earlier work

% Dissolved ([1]; 10 min) [%] | % Dissolved ([1]; 20 min) [%] | % Dissolved ([1]; 30 min) [%] | % Dissolved ([1]; 45 min) [%] | % Dissolved at 10 Minutes [1] [%] | % Dissolved at 30 Minutes [1] [%] | 90% less than ([2]; bulk lots of Table 6) [μm] | mean particle size ([2]; bulk lots of Table 6) [μm] | AUC [3] [ng·h/mL] | Surface Area ([4]; hydrochloride) [m^2/gm] | mean particle size ([2]; as restated) [microns] | Surface Area ([4]; listed as #2, hydrochloride) [m^2/gm] | Surface Area ([4]; listed as lot #2, hydrochloride) [m^2/gm] | 90% less than ([2]; bulk lots of Table 6, Ball Milled bulk lot) [μm] | 90% less than ([2]; bulk lots of Table 6, Slurry Milled bulk lot) [μm] | SMILES | inhibition of estrogen-dependent proliferation [5] | uterotrophic response [6] | antagonism of the uterotrophic response to estrogen [7]
31 | 45 | 54 | 64 | 31 | 55 |  |  | 5743 | 2.10 | 23.3 |  |  | 55.3 | 89 | O=C(c1ccc(OCCN2CCCCC2)cc1)c1c(-c2ccc(O)cc2)sc2cc(O)ccc12 [Lot #3, raloxifene hydrochloride] |  |  | 
15 | 27 | 35 | 49 | 15 | 35 |  |  | 3329 |  |  |  |  |  |  | O=C(c1ccc(OCCN2CCCCC2)cc1)c1c(-c2ccc(O)cc2)sc2cc(O)ccc12 [Lot #4, raloxifene hydrochloride] |  |  | 

Further lines, the compound ahead of its results:

SMILES | % Dissolved ([1]; 10 min) [%] | % Dissolved ([1]; 20 min) [%] | % Dissolved ([1]; 30 min) [%] | % Dissolved ([1]; 45 min) [%] | % Dissolved at 10 Minutes [1] [%] | % Dissolved at 30 Minutes [1] [%] | 90% less than ([2]; bulk lots of Table 6) [μm] | mean particle size ([2]; bulk lots of Table 6) [μm] | AUC [3] [ng·h/mL] | Surface Area ([4]; hydrochloride) [m^2/gm] | mean particle size ([2]; as restated) [microns] | Surface Area ([4]; listed as #2, hydrochloride) [m^2/gm] | Surface Area ([4]; listed as lot #2, hydrochloride) [m^2/gm] | 90% less than ([2]; bulk lots of Table 6, Ball Milled bulk lot) [μm] | 90% less than ([2]; bulk lots of Table 6, Slurry Milled bulk lot) [μm] | inhibition of estrogen-dependent proliferation [5] | uterotrophic response [6] | antagonism of the uterotrophic response to estrogen [7]
O=C(c1ccc(OCCN2CCCCC2)cc1)c1c(-c2ccc(O)cc2)sc2cc(O)ccc12 [Lot #1, raloxifene hydrochloride] | 51 | 68 | 78 | 88 | 50 | 78 | 6.8 | 3.9 | 10056 | 6.09 |  |  |  |  |  |  |  | 
O=C(c1ccc(OCCN2CCCCC2)cc1)c1c(-c2ccc(O)cc2)sc2cc(O)ccc12 [Lot #2, raloxifene hydrochloride] | 41 | 60 | 68 | 74 | 41 | 68 | 13.9 | 8.4 | 8037 |  | 8.4 | 2.28 | 2.28 |  |  |  |  | 
O=C(c1ccc(OCCN2CCCCC2)cc1)c1c(-c2ccc(O)cc2)sc2cc(O)ccc12 [Raloxifene, 6-hydroxy-2-(4-hydroxyphenyl)-3-[4-(2-piperidinoethoxy)benzoyl]benzo[b]-thiophene] |  |  |  |  |  |  |  |  |  |  |  |  |  |  |  | inhibits estrogen-dependent proliferation | only minimal uterotrophic response that was not dose-dependent | more effective than tamoxifen
